Measurements reported in PubChem BioAssay (NCI).
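These data come from cells grown in 96-well plates and exposed to compound for 48 hours at five concentrations. The concentration for 50% growth inhibition is given as GI50. At the TGI there is no net growth.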

Columns and labels:
Assay in all cases: NCI tumour cell line growth inhibition, 48 h
RPMI-8226 leukemia = tested on: RPMI-8226 leukemia
BT-549 breast = tested on: BT-549 breast
UACC-257 melanoma = tested on: UACC-257 melanoma
UACC-62 melanoma = tested on: UACC-62 melanoma
A549 NSCLC = tested on: A549 NSCLC
OVCAR-4 ovarian = tested on: OVCAR-4 ovarian
HCT-116 colon = tested on: HCT-116 colon
HCC-2998 colon = tested on: HCC-2998 colon
MDA-MB-468 breast = tested on: MDA-MB-468 breast
T-47D breast = tested on: T-47D breast
SR leukemia = tested on: SR leukemia
NCI-H522 lung = tested on: NCI-H522 lung
ACHN renal = tested on: ACHN renal
HT29 colon = tested on: HT29 colon
K-562 leukemia = tested on: K-562 leukemia
RXF 393 renal = tested on: RXF 393 renal
MALME-3M melanoma = tested on: MALME-3M melanoma
SK-MEL-28 melanoma = tested on: SK-MEL-28 melanoma
CCRF-CEM leukemia = tested on: CCRF-CEM leukemia
NCI-H460 lung = tested on: NCI-H460 lung
PC-3 prostate = tested on: PC-3 prostate
HOP-92 NSCLC = tested on: HOP-92 NSCLC
EKVX NSCLC = tested on: EKVX NSCLC
M14 melanoma = tested on: M14 melanoma
HCT-15 colon = tested on: HCT-15 colon
SNB-19 CNS = tested on: SNB-19 CNS
SN12C renal = tested on: SN12C renal
OVCAR-5 ovarian = tested on: OVCAR-5 ovarian
NCI-H226 lung = tested on: NCI-H226 lung
SW-620 colon = tested on: SW-620 colon
SK-MEL-2 melanoma = tested on: SK-MEL-2 melanoma
SF-295 CNS = tested on: SF-295 CNS
OVCAR-8 ovarian = tested on: OVCAR-8 ovarian
SK-MEL-5 melanoma = tested on: SK-MEL-5 melanoma
MOLT-4 leukemia = tested on: MOLT-4 leukemia
HS 578T breast = tested on: HS 578T breast
MCF7 breast = tested on: MCF7 breast
TK-10 renal = tested on: TK-10 renal
MDA-MB-435 = tested on: MDA-MB-435
SNB-75 CNS = tested on: SNB-75 CNS
OVCAR-3 ovarian = tested on: OVCAR-3 ovarian
SF-268 CNS = tested on: SF-268 CNS
HL-60(TB) leukemia = tested on: HL-60(TB) leukemia
U251 CNS = tested on: U251 CNS
HOP-62 NSCLC = tested on: HOP-62 NSCLC
IGROV1 ovarian = tested on: IGROV1 ovarian
SF-539 CNS = tested on: SF-539 CNS
A498 renal = tested on: A498 renal
DU-145 prostate = tested on: DU-145 prostate
MDA-MB-231 breast = tested on: MDA-MB-231 breast
SK-OV-3 ovarian = tested on: SK-OV-3 ovarian
786-0 renal = tested on: 786-0 renal
UO-31 renal = tested on: UO-31 renal
COLO 205 colon = tested on: COLO 205 colon
KM12 colon = tested on: KM12 colon
NCI-H23 lung = tested on: NCI-H23 lung
CAKI-1 renal = tested on: CAKI-1 renal

O=c1nc(-c2ccccc2)cc(-c2cc3ccccc3nc2Cl)[nH]1
GI50 (RPMI-8226 leukemia): 2.2 µM
TGI (RPMI-8226 leukemia): 7.19 µM
GI50 (BT-549 breast): 2.61 µM
TGI (BT-549 breast): 13.3 µM
GI50 (UACC-257 melanoma): 17 µM
TGI (UACC-257 melanoma): 36.9 µM
GI50 (UACC-62 melanoma): 7.98 µM
TGI (UACC-62 melanoma): 20.9 µM
GI50 (A549 NSCLC): 11.6 µM
TGI (A549 NSCLC): 80.3 µM
GI50 (OVCAR-4 ovarian): 17.8 µM
TGI (OVCAR-4 ovarian): 61.4 µM
GI50 (HCT-116 colon): 1.89 µM
TGI (HCT-116 colon): 3.9 µM
GI50 (HCC-2998 colon): 16.9 µM
TGI (HCC-2998 colon): 33.7 µM
GI50 (MDA-MB-468 breast): 4.24 µM
TGI (MDA-MB-468 breast): 19.5 µM
GI50 (T-47D breast): 21.4 µM
TGI (T-47D breast): > 100 µM
GI50 (SR leukemia): 0.549 µM
TGI (SR leukemia): 4.86 µM
GI50 (NCI-H522 lung): 8.4 µM
TGI (NCI-H522 lung): 22.3 µM
GI50 (ACHN renal): 5.59 µM
TGI (ACHN renal): 18.2 µM
GI50 (HT29 colon): 6.62 µM
TGI (HT29 colon): 24.8 µM
GI50 (K-562 leukemia): 2.71 µM
TGI (K-562 leukemia): 9.19 µM
GI50 (RXF 393 renal): 11.1 µM
TGI (RXF 393 renal): 25.1 µM
GI50 (MALME-3M melanoma): 12.4 µM
TGI (MALME-3M melanoma): 26.4 µM
GI50 (SK-MEL-28 melanoma): 11.1 µM
TGI (SK-MEL-28 melanoma): 23.3 µM
GI50 (CCRF-CEM leukemia): 2.75 µM
TGI (CCRF-CEM leukemia): 9.32 µM
GI50 (NCI-H460 lung): 3 µM
TGI (NCI-H460 lung): 10.3 µM
GI50 (PC-3 prostate): 6.11 µM
TGI (PC-3 prostate): 26.4 µM
GI50 (HOP-92 NSCLC): 4.21 µM
TGI (HOP-92 NSCLC): 22.4 µM
GI50 (EKVX NSCLC): 14.5 µM
TGI (EKVX NSCLC): 36.8 µM
GI50 (M14 melanoma): 12 µM
TGI (M14 melanoma): 31.6 µM
GI50 (HCT-15 colon): 2.12 µM
TGI (HCT-15 colon): 5.22 µM
GI50 (SNB-19 CNS): 3.92 µM
TGI (SNB-19 CNS): 15.8 µM
GI50 (SN12C renal): 11.2 µM
TGI (SN12C renal): 23.9 µM
GI50 (OVCAR-5 ovarian): 12.2 µM
TGI (OVCAR-5 ovarian): 25.3 µM
GI50 (NCI-H226 lung): 11.2 µM
TGI (NCI-H226 lung): 28.1 µM
GI50 (SW-620 colon): 1.93 µM
TGI (SW-620 colon): 3.91 µM
GI50 (SK-MEL-2 melanoma): 17.1 µM
TGI (SK-MEL-2 melanoma): 34 µM
GI50 (SF-295 CNS): 10.1 µM
TGI (SF-295 CNS): 24.1 µM
GI50 (OVCAR-8 ovarian): 3.71 µM
TGI (OVCAR-8 ovarian): 18.6 µM
GI50 (SK-MEL-5 melanoma): 17.6 µM
TGI (SK-MEL-5 melanoma): 33.4 µM
GI50 (MOLT-4 leukemia): 3.07 µM
TGI (MOLT-4 leukemia): 12.4 µM
GI50 (HS 578T breast): 12.3 µM
TGI (HS 578T breast): 60.2 µM
GI50 (MCF7 breast): 2.53 µM
TGI (MCF7 breast): 14.8 µM
GI50 (TK-10 renal): 16.4 µM
TGI (TK-10 renal): 41.5 µM
GI50 (MDA-MB-435): 6.96 µM
TGI (MDA-MB-435): 22.3 µM
GI50 (SNB-75 CNS): 3.82 µM
TGI (SNB-75 CNS): 20.6 µM
GI50 (OVCAR-3 ovarian): 3.38 µM
TGI (OVCAR-3 ovarian): 12.8 µM
GI50 (SF-268 CNS): 4.97 µM
TGI (SF-268 CNS): 18.6 µM
GI50 (HL-60(TB) leukemia): 2.27 µM
TGI (HL-60(TB) leukemia): 6.67 µM
GI50 (U251 CNS): 1.62 µM
TGI (U251 CNS): 4.25 µM
GI50 (HOP-62 NSCLC): 5.23 µM
TGI (HOP-62 NSCLC): 20.6 µM
GI50 (IGROV1 ovarian): 12.8 µM
TGI (IGROV1 ovarian): 27.9 µM
GI50 (SF-539 CNS): 2.05 µM
TGI (SF-539 CNS): 5.1 µM
GI50 (A498 renal): 21.2 µM
TGI (A498 renal): 43.5 µM
GI50 (DU-145 prostate): 7.23 µM
TGI (DU-145 prostate): 20.3 µM
GI50 (MDA-MB-231 breast): 6.12 µM
TGI (MDA-MB-231 breast): 19.3 µM
GI50 (SK-OV-3 ovarian): 21.7 µM
TGI (SK-OV-3 ovarian): > 100 µM
GI50 (786-0 renal): 3.39 µM
TGI (786-0 renal): 13.3 µM
GI50 (UO-31 renal): 3.98 µM
TGI (UO-31 renal): 18 µM
GI50 (COLO 205 colon): 8.33 µM
TGI (COLO 205 colon): 25.4 µM
GI50 (KM12 colon): 1.96 µM
TGI (KM12 colon): 4.39 µM
GI50 (NCI-H23 lung): 10.7 µM
TGI (NCI-H23 lung): 39.6 µM
GI50 (CAKI-1 renal): 10.1 µM
TGI (CAKI-1 renal): 23 µM
